This note sets out measurements from ChEMBL document CHEMBL5154724, “Cathepsin D inhibitors based on tasiamide B derivatives with cell membrane permeability” (Bioorg Med Chem, 2022).

Structures are written as SMILES. Where a name gives a salt, the structure may show the parent alone. *1 amine or outer side, *2 acyl side, *3 side chain or, on linkers, in order; H or OH if unused. Where a SMILES comes first, the peptide text is derived from it. [ ]: non-standard residue; d: D form. The star is where a group is joined. Ahppa(3S,4S) = O=C(C[C@H](O)[C@H](Cc1ccccc1)N[*:1])[*:2]; dNMeF = CN[C@H](Cc1ccccc1)C(=O)O; NMeQ = CN[C@@H](CCC(N)=O)C(=O)O; Cbz = O=C(OCc1ccccc1)*

Series [1] deals with T1, Cathepsin E (Homo sapiens, UniProt P14091).
T1 sequence (P14091 whole entry): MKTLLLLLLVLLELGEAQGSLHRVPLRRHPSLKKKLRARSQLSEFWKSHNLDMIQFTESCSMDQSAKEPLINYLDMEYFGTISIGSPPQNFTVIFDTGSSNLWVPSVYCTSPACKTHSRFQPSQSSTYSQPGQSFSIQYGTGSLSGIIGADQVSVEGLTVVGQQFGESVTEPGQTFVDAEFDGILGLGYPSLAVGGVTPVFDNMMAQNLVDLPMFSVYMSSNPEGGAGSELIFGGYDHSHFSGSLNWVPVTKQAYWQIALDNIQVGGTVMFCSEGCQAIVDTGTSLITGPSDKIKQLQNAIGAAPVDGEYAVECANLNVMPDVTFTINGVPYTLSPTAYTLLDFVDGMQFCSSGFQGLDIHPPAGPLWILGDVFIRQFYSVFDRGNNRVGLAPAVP
The experiment in a line: Inhibition of Cathepsin E (unknown origin) using Mca-Gly-Lys-Pro-Ile-Leu-Phe-Phe-Arg-Leu-Lys-(Dnp)-D-Arg-NH2 as substrate incubated for 120 mins by fluorescence assay.

Series [2] deals with Cathepsin D (Homo sapiens, UniProt P07339). The experiment in a line: Inhibition of recombinant human liver Cathepsin D using Mca-Gly-Lys-Pro-Ile-Leu-Phe-Phe-Arg-Leu-Lys-(Dnp)-D-Arg-NH2 as substrate incubated for 120 mins by fluorescence assay.
Chain of Cathepsin D (P07339 65-162 limits assumed): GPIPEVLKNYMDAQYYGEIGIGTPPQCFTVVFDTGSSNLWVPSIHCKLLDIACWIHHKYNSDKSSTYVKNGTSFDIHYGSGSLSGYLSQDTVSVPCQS
Chain of Cathepsin D (P07339 169-412 limits assumed): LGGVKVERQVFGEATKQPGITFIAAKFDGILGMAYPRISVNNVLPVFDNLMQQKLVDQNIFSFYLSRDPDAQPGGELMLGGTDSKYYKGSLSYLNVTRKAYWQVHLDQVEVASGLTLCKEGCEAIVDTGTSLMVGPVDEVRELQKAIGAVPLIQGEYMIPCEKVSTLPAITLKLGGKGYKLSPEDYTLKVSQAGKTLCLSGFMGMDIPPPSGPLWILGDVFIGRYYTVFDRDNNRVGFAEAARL
Series [3] concerns A549. The experiment in a line: Antiproliferative activity against human A549 cells assessed as reduction in cell viability after 72 hrs by CCK-8 assay. The conditions noted are these: A549, 72 h. In kind it is functional, cell-based. On the technique in general: Formazan colour is commonly taken as a measure of viable cells.
The test system of series [4] is MDA-MB-231. The experiment in a line: Antiproliferative activity against human MDA-MB-231 cells assessed as reduction in cell viability at 10 uM after 72 hrs by CCK-8 assay relative to control. It is filed as functional.
Series [5] has as its system MDA-MB-231. The experiment in a line: Antiproliferative activity against human MDA-MB-231 cells assessed as reduction in cell viability after 72 hrs by CCK-8 assay. In kind it is functional, cell-based. The note with it: MDA-MB-231, 72 h.
The test system of series [6] is HepG2. The series is described as follows: Antiproliferative activity against human HepG2 cells assessed as reduction in cell viability after 72 hrs by CCK-8 assay. In kind it is functional, cell-based. The conditions noted are these: HepG2, 72 h.
Series [7] in a line: Drug uptake in human MDA-MB-231 cells assessed as increase in co-localization with lysosomal at 10 uM after 16 hrs by LTG/Hoechst 33258 staining based confocal laser scanning microscopy. It is filed as ADME, cell-based. The note with it: mda-mb-231, 16 h.
The nature of series [8]: Drug uptake in human MDA-MB-231 cells assessed as increase in internalization at 10 uM after 3 to 24 hrs by LTG/Hoechst 33258 staining based confocal laser scanning microscopy. It is filed as ADME, cell-based. The conditions noted are these: mda-mb-231, 10 µM, time 3-24 hrs.
Series [9] in a line: Drug uptake in human MDA-MB-231 cells assessed as increase in internalization at 10 uM after 16 to 24 hrs by LTG/Hoechst 33258 staining based confocal laser scanning microscopy. In kind it is ADME, cell-based. The conditions noted are these: mda-mb-231, 10 µM, time 16-24 hrs.
Series [10] addresses Beta-secretase 1 (Homo sapiens, UniProt P56817). The experiment in a line: Inhibition of BACE1 (unknown origin) using Mca-Ser-Glu-Val-Asn-Leu-Asp-Ala-Glu-Phe-Arg-Lys(Dnp)-Arg-Arg-NH2 as substrate incubated for 120 mins by fluorescence assay.

Chain of Beta-secretase 1 (P56817 whole entry): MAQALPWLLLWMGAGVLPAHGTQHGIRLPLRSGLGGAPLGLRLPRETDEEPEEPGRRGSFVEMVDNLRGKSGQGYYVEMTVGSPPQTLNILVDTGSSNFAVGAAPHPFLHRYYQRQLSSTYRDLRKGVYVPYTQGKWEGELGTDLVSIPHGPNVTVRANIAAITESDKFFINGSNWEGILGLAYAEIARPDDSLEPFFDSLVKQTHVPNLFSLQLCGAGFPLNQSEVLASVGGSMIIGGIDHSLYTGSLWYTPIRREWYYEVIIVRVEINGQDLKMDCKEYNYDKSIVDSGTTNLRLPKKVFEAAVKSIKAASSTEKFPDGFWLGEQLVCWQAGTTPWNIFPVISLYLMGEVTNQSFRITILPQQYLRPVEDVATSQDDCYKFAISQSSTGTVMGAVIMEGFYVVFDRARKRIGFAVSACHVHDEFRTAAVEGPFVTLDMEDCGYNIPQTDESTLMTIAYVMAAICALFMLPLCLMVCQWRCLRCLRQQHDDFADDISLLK

By IC50 is commonly meant the concentration that gives 50% inhibition. For `CC(C)C[C@H](NC(=O)C[C@H](O)[C@H](Cc1ccccc1)NC(=O)[C@H](CCC(N)=O)N(C)C(=O)[C@@H](NC(=O)OCc1ccccc1)C(C)C)C(=O)N[C@@H](C)C(=O)N(C)[C@H](Cc1ccc(OC(C)(C)C)cc1)C(=O)N1CCC[C@H]1C(=O)O`, the half-maximal inhibitory concentration (IC50) amounted to 187 nM in [1] and 19 nM in series [2].

As for `COC(=O)[C@@H]1CCCN1C(=O)[C@@H](Cc1ccc(OC(C)(C)C)cc1)N(C)C(=O)[C@H](C)NC(=O)[C@H](CC(C)C)NC(=O)C[C@H](O)[C@H](Cc1ccccc1)NC(=O)[C@H](CCC(N)=O)N(C)C(=O)[C@@H](NC(=O)OCc1ccccc1)C(C)C`, the values for the 50% inhibitory concentration (IC50) in series [1] and in series [2] were 105 nM and 18 nM, respectively.

The inhibition is the change of the read-out against control, counted positive when it falls. With `COC(=O)[C@@H]1CCCN1C(=O)[C@@H](Cc1ccc(O)cc1)N(C)C(=O)[C@H](C)NC(=O)[C@H](CC(C)C)NC(=O)C[C@H](O)[C@H](Cc1ccccc1)NC(=O)[C@H](CCC(N)=O)N(C)C(=O)[C@@H](NC(=O)OCc1ccccc1)C(C)C`, the IC50 is greater than 10000 nM in series [3]; 104 nM in series [1]; greater than 10000 nM in [5]; greater than 10000 nM in [6]; 0.178 nM in series [2]. Further, the inhibition at 10 µM in series [4] was 12%.

Take `CC(C)C[C@H](NC(=O)C[C@H](O)[C@H](Cc1ccccc1)NC(=O)[C@H](CCC(N)=O)N(C)C(=O)[C@@H](NC(=O)OCc1ccccc1)C(C)C)C(=O)N[C@@H](C)C(=O)N(C)[C@H](Cc1ccccc1)C(=O)N1CCC[C@H]1C(=O)O`: the IC50 in series [1] was found to be 120 nM; in series [2], 4.89 nM.

As to `COc1cccc2c1C(=O)c1c(O)c3c(c(O)c1C2=O)C[C@@](O)(C(=O)CO)C[C@@H]3O[C@H]1C[C@H](N)[C@H](O)[C@H](C)O1` [DOXORUBICIN HYDROCHLORIDE], the IC50 in [3] amounted to 400 nM; in series [5] it was 370 nM. In addition, the inhibition at 10 µM in series [4] amounted to 70%.

Take `C#CCNC(=O)[C@H](CCCCNC(=O)[C@H](CCCCN)NC(=O)[C@H](CCCCN)NC(=O)[C@H](CCC(N)=O)NC(=O)[C@H](CO)NC(=O)CCN1c2ccccc2C(C)(C)[C@]12CCc1cc([N+](=O)[O-])ccc1O2)NC(=O)[C@H](CCCCN)NC(=O)[C@H](CCCCN)NC(=O)C(CCC(N)=O)NC(=O)[C@H](CO)NC(=O)CCN1c2ccccc2C(C)(C)[C@]12CCc1cc([N+](=O)[O-])ccc1O2` (some centres not stated): the Drug uptake result in series [7] and in series [8] was “Active” throughout.

Regarding `CC(C)C[C@H](NC(=O)C[C@H](O)[C@H](Cc1ccccc1)NC(=O)[C@H](CCC(N)=O)N(C)C(=O)[C@@H](NC(=O)OCc1ccccc1)C(C)C)C(=O)N[C@@H](C)C(=O)N(C)[C@H](Cc1ccc(O)cc1)C(=O)N1CCC[C@H]1C(=O)NCCOCCOCCn1cc(CNC(=O)[C@H](CCCCNC(=O)[C@H](CCCCN)NC(=O)[C@H](CCCCN)NC(=O)[C@H](CCC(N)=O)NC(=O)[C@H](CO)NC(=O)CCN2c3ccccc3C(C)(C)[C@]23C=Cc2cc([N+](=O)[O-])ccc2O3)NC(=O)[C@H](CCCCN)NC(=O)[C@H](CCCCN)NC(=O)C(CCC(N)=O)NC(=O)[C@H](CO)NC(=O)CCN2c3ccccc3C(C)(C)[C@]23CCc2cc([N+](=O)[O-])ccc2O3)nn1` (some centres not stated), the half-inhibitory concentration (IC50) in [3] is greater than 10000 nM; in series [1] it was 12 nM; in [5], 9100 nM; in series [6] it was greater than 10000 nM; in [2], 22 nM; in series [10], 828 nM. For the same molecule, in series [4], the inhibition at 10 µM was 52%. Besides, the Drug uptake result in series [9] was “Active”.

For the molecule `CC(C)C[C@H](NC(=O)C[C@H](O)[C@H](Cc1ccccc1)NC(=O)[C@H](CCC(N)=O)N(C)C(=O)[C@@H](NC(=O)OCc1ccccc1)C(C)C)C(=O)N[C@@H](C)C(=O)N(C)[C@H](Cc1ccccc1)C(=O)N1CCC[C@H]1C(=O)NCCOCCOCCn1cc(CNC(=O)[C@H](CCCCNC(=O)[C@H](CCCCN)NC(=O)[C@H](CCCCN)NC(=O)[C@H](CCC(N)=O)NC(=O)[C@H](CO)NC(=O)CCN2c3ccccc3C(C)(C)[C@]23C=Cc2cc([N+](=O)[O-])ccc2O3)NC(=O)[C@H](CCCCN)NC(=O)[C@H](CCCCN)NC(=O)C(CCC(N)=O)NC(=O)[C@H](CO)NC(=O)CCN2c3ccccc3C(C)(C)[C@]23CCc2cc([N+](=O)[O-])ccc2O3)nn1` (some centres not stated), the IC50 was greater than 10000 nM in series [3]; 100 nM in series [1]; greater than 10000 nM in [5]; greater than 10000 nM in [6]; 41 nM in [2]; 1030 nM in [10]. In [4], the inhibition at 10 µM worked out at 49%. For the same molecule, the Drug uptake result in series [9] was “Active”.

On to `COC(=O)[C@@H]1CCCN1C(=O)[C@@H](Cc1ccccc1)N(C)C(=O)[C@H](C)NC(=O)[C@H](CC(C)C)NC(=O)C[C@H](O)[C@H](Cc1ccccc1)NC(=O)[C@H](CCC(N)=O)N(C)C(=O)[C@@H](NC(=O)OCc1ccccc1)C(C)C` (Cbz-V[NMeQ][Ahppa(3S,4S)]LA[dNMeF]P-OMe), for which the IC50 in series [3], in series [5] and in [6] was greater than 10000 nM each time. Also, the inhibition at 10 µM in series [4] stood at 14%.
